According to ChEMBL document CHEMBL5608235, “Tricyclic Benzo[1,3]oxazinyloxazolidinones as Potent Antibacterial Agents against Drug-Resistant Pathogens” (J Med Chem, 2024):
In brackets after ≈: the same amount, converted by molar mass.

Tests used:
[1] = AUC (0 to infinity) in BALB/c mouse at 1 mg/kg,iv administration measured upto 24 hrs by LC-MS/MS analysis; format: ADME, organism-based; conditions: in vivo, iv, 1 mg/kg, 24 h
[2] = Drug concentration in BALB/c mouse plasma at 10 mg/kg,po administration measured after 24 hrs by LC-MS/MS analysis; format: ADME, organism-based; conditions: in vivo
[3] = system: Staphylococcus epidermidis; test: Antibacterial activity against methicillin resistant Staphylococcus epidermidis clinical isolate 20-2 assessed as inhibition of bacterial growth incubated for 7 days by alamar blue assay; format: functional; conditions: clinical isolate 20-2, 168 h, time 7 day
[4] = Metabolic stability in human liver microsomes assessed as compound remaining at 10 uM incubated for 60 mins in absence of NADPH by LC-MS/MS analysis; format: ADME, Microsome; conditions: read-out: Stability
[5] = Tmax in BALB/c mouse at 10 mg/kg,po administration measured upto 24 hrs by LC-MS/MS analysis; format: ADME, organism-based; conditions: in vivo
[6] = AUC (0 to t) in BALB/c mouse at 10 mg/kg,po administration measured upto 24 hrs by LC-MS/MS analysis; format: ADME, organism-based; conditions: in vivo
Enterococcus faecalis [7] = test: Antibacterial activity against Linezolid resistant Enterococcus faecalis clinical isolate 20-1 assessed as inhibition of bacterial growth incubated for 7 days by alamar blue assay; format: functional; conditions: clinical isolate 20-1, 168 h, time 7 day
Enterococcus faecalis [8] = test: Antibacterial activity against Enterococcus faecalis ATCC29212 assessed as inhibition of bacterial growth incubated for 18 hrs by microdilution broth assay; format: functional
[9] = MRT (0 to infinity) in BALB/c mouse at 10 mg/kg,po administration measured upto 24 hrs by LC-MS/MS analysis; format: ADME, organism-based; conditions: in vivo
[10] = Cytotoxicity against African green monkey Vero cells incubated for 48 hrs by MTT assay; format: toxicity, cell-based, Chlorocebus sabaeus
Staphylococcus aureus [11] = test: Antibacterial activity against Linezolid resistant Staphylococcus aureus clinical isolate 20-1 assessed as inhibition of bacterial growth incubated for 7 days by alamar blue assay; format: functional; conditions: clinical isolate 20-1, 168 h, time 7 day
Staphylococcus aureus [12] = test: Antibacterial activity against Staphylococcus aureus ATCC25923 assessed as inhibition of bacterial growth incubated for 18 hrs by microdilution broth assay; format: functional
[13] = system: Mycobacterium tuberculosis; test: Antibacterial activity against Mycobacterium tuberculosis H37Rv assessed as inhibition of bacterial growth incubated for 7 days by alamar blue assay; format: functional; conditions: 168 h, time 7 day
[14] = Metabolic stability in human liver microsomes assessed as substrate remaining at 10 uM incubated for 60 mins in presence of NADPH by LC-MS/MS analysis; format: ADME, Microsome; conditions: read-out: Stability
[15] = Metabolic stability in ICR mouse liver microsomes assessed as compound remaining at 10 uM incubated for 60 mins in absence of NADPH by LC-MS/MS analysis; format: ADME, Microsome; conditions: read-out: Stability
Staphylococcus aureus [16] = test: Antibacterial activity against methicillin resistant Staphylococcus aureus clinical isolate 20-2 assessed as inhibition of bacterial growth incubated for 7 days by alamar blue assay; format: functional; conditions: clinical isolate 20-2, 168 h, time 7 day
[17] = Free AUC in BALB/c mouse at 10 mg/kg,po administration measured upto 24 hrs by LC-MS/MS analysis; format: ADME, organism-based; conditions: in vivo
[18] = Plasma protein binding in BALB/c mouse at 1 mg/kg,iv administration measured upto 24 hrs by LC-MS/MS analysis; format: ADME, organism-based; conditions: read-out: PPB (converted)
[19] = Terminal half life in BALB/c mouse at 1 mg/kg,iv administration measured upto 24 hrs by LC-MS/MS analysis; format: ADME, organism-based; conditions: in vivo, read-out: beta t1/2 (converted)
[20] = system: Staphylococcus epidermidis; test: Antibacterial activity against Staphylococcus epidermidis ATCC12228 assessed as inhibition of bacterial growth incubated for 18 hrs by microdilution broth assay; format: functional
[21] = MRT (0 to infinity) in BALB/c mouse at 1 mg/kg,iv administration measured upto 24 hrs by LC-MS/MS analysis; format: ADME, organism-based; conditions: in vivo
[22] = AUC (0 to t) in BALB/c mouse at 1 mg/kg,iv administration measured upto 24 hrs by LC-MS/MS analysis; format: ADME, organism-based; conditions: in vivo
[23] = Volume of distribution in BALB/c mouse at 1 mg/kg,iv administration measured upto 24 hrs by LC-MS/MS analysis; format: ADME, organism-based; conditions: in vivo
[24] = Cmax in BALB/c mouse at 1 mg/kg,iv administration measured upto 24 hrs by LC-MS/MS analysis; format: ADME, organism-based; conditions: in vivo
Staphylococcus aureus [25] = test: Antibacterial activity against methicillin resistant Staphylococcus aureus clinical isolate 20-1 assessed as inhibition of bacterial growth incubated for 7 days by alamar blue assay; format: functional; conditions: clinical isolate 20-1, 168 h, time 7 day
[26] = MRT (0 to t) in BALB/c mouse at 10 mg/kg,po administration measured upto 24 hrs by LC-MS/MS analysis; format: ADME, organism-based; conditions: in vivo
[27] = Cmax in BALB/c mouse at 10 mg/kg,po administration measured upto 24 hrs by LC-MS/MS analysis; format: ADME, organism-based; conditions: in vivo
[28] = Clearance in BALB/c mouse at 1 mg/kg,iv administration measured upto 24 hrs by LC-MS/MS analysis; format: ADME, organism-based; conditions: in vivo
[29] = MRT (0 to t) in BALB/c mouse at 1 mg/kg,iv administration measured upto 24 hrs by LC-MS/MS analysis; format: ADME, organism-based; conditions: in vivo
[30] = Drug concentration in BALB/c mouse plasma at 10 mg/kg,po administration measured within 15 mins by LC-MS/MS analysis; format: ADME, organism-based
Enterococcus faecalis [31] = test: Antibacterial activity against Linezolid resistant Enterococcus faecalis clinical isolate 20-2 assessed as inhibition of bacterial growth incubated for 7 days by alamar blue assay; format: functional; conditions: clinical isolate 20-2, 168 h, time 7 day
Staphylococcus aureus [32] = test: Antibacterial activity against Linezolid resistant Staphylococcus aureus clinical isolate 20-2 assessed as inhibition of bacterial growth incubated for 7 days by alamar blue assay; format: functional; conditions: clinical isolate 20-2, 168 h, time 7 day
[33] = Terminal half life in BALB/c mouse at 10 mg/kg,po administration measured upto 24 hrs by LC-MS/MS analysis; format: ADME, organism-based; conditions: in vivo, read-out: beta t1/2 (converted)
Staphylococcus aureus [34] = test: Antibacterial activity against vancomycin intermediate Staphylococcus aureus ATCC700699 assessed as inhibition of bacterial growth incubated for 7 days by alamar blue assay; format: functional; conditions: ATCC700699, 168 h, time 7 day
[35] = system: Staphylococcus epidermidis; test: Antibacterial activity against methicillin resistant Staphylococcus epidermidis clinical isolate 20-1 assessed as inhibition of bacterial growth incubated for 7 days by alamar blue assay; format: functional; conditions: clinical isolate 20-1, 168 h, time 7 day
[36] = Oral bioavailability in BALB/c mouse at 10 mg/kg administration measured upto 24 hrs by LC-MS/MS analysis; format: ADME, organism-based; conditions: in vivo, po, 10 mg/kg, 24 h
[37] = AUC (0 to infinity) in BALB/c mouse at 10 mg/kg,po administration measured upto 24 hrs by LC-MS/MS analysis; format: ADME, organism-based; conditions: in vivo, po, 10 mg/kg, 24 h
[38] = Metabolic stability in ICR mouse liver microsomes assessed as substrate remaining at 10 uM incubated for 60 mins in presence of NADPH by LC-MS/MS analysis; format: ADME, Microsome; conditions: read-out: Stability
Bacillus subtilis = test: Antibacterial activity against Bacillus subtilis ATCC6633 assessed as inhibition of bacterial growth incubated for 18 hrs by microdilution broth assay; format: functional
Enterococcus = test: Antibacterial activity against vancomycin resistant Enterococcus clinical isolate 20-1 assessed as inhibition of bacterial growth incubated for 7 days by alamar blue assay; format: functional; conditions: clinical isolate 20-1, 168 h, time 7 day

In the case of `COC(=O)NC[C@@H]1OC(=O)N2Cc3cc(-c4ccc(C#N)cc4)c(F)cc3O[C@@H]12`, the AUC [1] is reported as 6893 ng·h/mL, the Drug uptake [2] is reported as > 60% and the MIC [3] is reported as 0.125 µg/mL (≈ 0.315 µM). For the same compound, the remaining at 1 h, 10 µM [4] was 108%, the Tmax [5] was 4 h and the AUC(0-t) at 24 h [6] was 54300 ng·h/mL. It also gave an MIC (Enterococcus faecalis [7]) of 2 µg/mL (≈ 5.03 µM), an MIC (Enterococcus faecalis [8]) of 0.25 µg/mL (≈ 0.629 µM) and an MRT inf [9] of 70.9 h. The IC50 at 48 h [10] was > 64 µg/mL, the MIC (Staphylococcus aureus [11]) was 8 µg/mL (≈ 20.1 µM) and the MIC (Staphylococcus aureus [12]) was 2 µg/mL (≈ 5.03 µM). For the same compound, the MIC [13] was 0.73 µg/mL (≈ 1.84 µM), the remaining at 1 h, 10 µM [14] was 113% and the remaining at 1 h, 10 µM [15] was 112%. For the same compound, the MIC (Staphylococcus aureus [16]) was 0.5 µg/mL (≈ 1.26 µM), the fAUC [17] was 9.45 µg·h/mL and the fraction unbound at 24 h [18] was 0.174. The half-life [19] was 234 min, the MIC [20] was 0.032 µg/mL (≈ 0.0805 µM) and the MRT inf [21] was 8.4 h. The AUC(0-t) at 24 h [22] was 6810 ng·h/mL, the Vd [23] was 0.818 L/kg and the Cmax [24] was 514 ng/mL. The MIC (Staphylococcus aureus [25]) was 0.5 µg/mL (≈ 1.26 µM), the MRT last at 24 h [26] was 11.3 h and the Cmax [27] was 2790 ng/mL. For the same compound, the clearance [28] was 2.42 mL/min/kg, the MRT last at 24 h [29] was 8.1 h and the concentration at 0.25 h [30] was 1000 ng/mL. The MIC (Enterococcus faecalis [31]) was 2 µg/mL (≈ 5.03 µM), the MIC (Staphylococcus aureus [32]) was 8 µg/mL (≈ 20.1 µM) and the half-life [33] was 2960 min. It also gave an MIC (Staphylococcus aureus [34]) of 0.5 µg/mL (≈ 1.26 µM), an MIC [35] of 0.125 µg/mL (≈ 0.315 µM) and an F [36] of 79.8%. For the same compound, the AUC [37] was 188.361 µg·h/mL, the remaining at 1 h, 10 µM [38] was 114% and the MIC (Bacillus subtilis) was 0.063 µg/mL (≈ 0.159 µM). It also gave an MIC (Enterococcus) of 0.5 µg/mL (≈ 1.26 µM).
